Reference: publication PMC4512978, “Synthesis and evaluation in rats of homologous series of [^18F]-labeled dopamine D2/3 receptor agonists based on the 2-aminomethylchroman scaffold as potential PET tracers” (EJNMMI Research, 2015)

How the values were obtained:
[1] = LogD measurement (n-octanol/phosphate buffer); type: physicochemical; conditions: n-octanol / 1 M phosphate buffer pH 7.4
Procedure: LogD of the tracers was measured using the radioactivity remaining on the HLB SPE cartridges after their elution with ethanol during the tracer formulation procedure (see above). The cartridge was dried with nitrogen for 5 min and eluted with at least 1.5 mL n-octanol. A 500 μL portion of octanol eluate was mixed with 500 μL of 1 M phosphate buffer (pH 7.4) and vigorously vortexed for 5 min. The mixture was then centrifuged at 17,000g for 10 min and 3 × 100 μL aliquots of organic and aqueous phase were loaded into a gamma-counter for radioactivity measurement. To correct for possible presence of radioactive impurities in the tracer, aliquots of organic and aqueous phases were later analyzed by radio-TLC, and the counts obtained from the gamma-counter were corrected according to the percentage of impurities found in aqueous and organic phases. LogD was calculated with the following formula: LogD=lgCPMorg×Xorgtracer/CPMaq×Xaqtracer,
where CPMorg is the mean radioactivity of the organic aliquots, Xorgtracer is the mean percentage of radioactivity accounting for intact tracer in organic aliquots (as determined from radio-TLC), and CPMaq and Xaqtracer are the corresponding values for the aqueous phase.
For each tracer batch used for logD determination, the experiment was performed in duplicate. LogD values are means calculated from at least two independent experiments.

[2] = Ex vivo tissue uptake after the PET scan (gamma-counter); type: in vivo, Sprague-Dawley rats
Procedure: After the end of the PET scans (i.e., 98 ± 8 min after tracer injection), anesthetized animals were sacrificed by heart extirpation and dissected. Samples of brain and peripheral tissues were taken. All samples were weighed, and their radioactivity was measured in a gamma-counter.

[3] = Tracer metabolism in plasma and brain extract (radio-TLC); type: in vivo, rats
Procedure: Throughout the scan, arterial blood samples (15–19 samples; 0.10–0.15 mL each) were withdrawn from each rat through the arterial cannula. […] From each sample, 25 μL aliquots of whole blood were withdrawn. The rest was centrifuged at 3500 g for 5 min; 25 μL supernatant (plasma) aliquots were withdrawn and deproteinated with 75 μL of ice-cold acetonitrile. From the resulting 100 μL, 2–8 μL portions (i.e., 2–8 % of volume) were taken for thin layer chromatography analysis (radio-TLC) to assess radiometabolite content.
The radioactivity of the plasma and whole blood samples was measured using a well-type gamma-counter (LKB-1282-Compugamma, LKB Wallac).
Radio-TLC was performed on silica plates. Samples of the formulated tracers (diluted) were run along with deproteinated plasma samples to confirm the identity of the parent compound in plasma. Eluent systems used and TLC Rf values recorded are presented in Additional file 1: Table S1.
Another half of the brain was homogenized in 3 mL of ice-cold acetonitrile using Heidolph IDAX600 homogenizer at maximum speed. Homogenate was centrifuged at 3500g for 5 min, and the supernatant (containing >95 % total radioactivity) was analyzed by radio-TLC in the same way as described above for the plasma.

[4] = raclopride 1 mg/kg, after PET scan

logD [1]: 1.67 ± 0.07
Ex vivo uptake, Adipose tissue ([2]; RAC): 0.09±0.02 SUV
Ex vivo uptake, Adrenal glands ([2]; RAC): 0.59±0.20 SUV
Ex vivo uptake, Bladder ([2]; RAC): 0.83±0.64 SUV
Ex vivo uptake, Blood cells ([2]; RAC): 0.06±0.01 SUV
Ex vivo uptake, Bone ([2]; RAC): 0.17±0.05 SUV
Ex vivo uptake, Bone marrow ([2]; RAC): 2.00±3.17 SUV
Ex vivo uptake, Caecum ([2]; RAC): 0.63±0.84 SUV
Ex vivo uptake, Duodenum ([2]; RAC): 4.01±4.63 SUV
Ex vivo uptake, Heart ([2]; RAC): 0.16±0.02 SUV
Ex vivo uptake, Kidney ([2]; RAC): 0.48±0.07 SUV
Ex vivo uptake, Large intestine ([2]; RAC): 0.41±0.33 SUV
Ex vivo uptake, Large intestine content ([2]; RAC): 0.09±0.12 SUV
Ex vivo uptake, Liver ([2]; RAC): 1.43±0.30 SUV
Ex vivo uptake, Lung ([2]; RAC): 1.38±0.20 SUV
Ex vivo uptake, Muscle ([2]; RAC): 0.19±0.05 SUV
Ex vivo uptake, Pancreas ([2]; RAC): 1.47±0.32 SUV
Ex vivo uptake, Plasma ([2]; RAC): 0.23±0.01 SUV
Ex vivo uptake, Prostate ([2]; RAC): 0.40±0.26 SUV
Ex vivo uptake, Small intestine ([2]; RAC): 2.39±1.94 SUV
Ex vivo uptake, Small intestine content ([2]; RAC): 24.6±32.8 SUV
Ex vivo uptake, Spleen ([2]; RAC): 0.52±0.10 SUV
Ex vivo uptake, Stomach ([2]; RAC): 2.09±1.19 SUV
Ex vivo uptake, Submandibular gland ([2]; RAC): 0.28±0.06 SUV
Ex vivo uptake, Testes ([2]; RAC): 0.42±0.10 SUV
Ex vivo uptake, Thymus ([2]; RAC): 0.30±0.06 SUV
Ex vivo uptake, Urine ([2]; RAC): 4.40±3.88 SUV
Ex vivo uptake, Whole blood ([2]; RAC): 0.17±0.01 SUV
Ex vivo uptake, Adipose tissue ([2]; SAL): 0.30±0.42 SUV
Ex vivo uptake, Adrenal glands ([2]; SAL): 0.84±0.29 SUV
Ex vivo uptake, Bladder ([2]; SAL): 1.00±0.52 SUV
Ex vivo uptake, Blood cells ([2]; SAL): 0.07±0.01 SUV
Ex vivo uptake, Bone ([2]; SAL): 0.24±0.21 SUV
Ex vivo uptake, Bone marrow ([2]; SAL): 0.68±0.38 SUV
Ex vivo uptake, Caecum ([2]; SAL): 0.46±0.29 SUV
Ex vivo uptake, Duodenum ([2]; SAL): 1.15±0.25 SUV
Ex vivo uptake, Heart ([2]; SAL): 0.15±0.04 SUV
Ex vivo uptake, Kidney ([2]; SAL): 0.64±0.20 SUV
Ex vivo uptake, Large intestine ([2]; SAL): 0.57±0.36 SUV
Ex vivo uptake, Large intestine content ([2]; SAL): 0.06±0.03 SUV
Ex vivo uptake, Liver ([2]; SAL): 1.51±0.14 SUV
Ex vivo uptake, Lung ([2]; SAL): 1.67±0.41 SUV
Ex vivo uptake, Muscle ([2]; SAL): 0.17±0.04 SUV
Ex vivo uptake, Pancreas ([2]; SAL): 1.31±0.31 SUV
Ex vivo uptake, Plasma ([2]; SAL): 0.22±0.04 SUV
Ex vivo uptake, Prostate ([2]; SAL): 0.62±0.18 SUV
Ex vivo uptake, Small intestine ([2]; SAL): 3.15±2.00 SUV
Ex vivo uptake, Small intestine content ([2]; SAL): 54.2±57.7 SUV
Ex vivo uptake, Spleen ([2]; SAL): 0.46±0.05 SUV
Ex vivo uptake, Stomach ([2]; SAL): 1.36±0.35 SUV
Ex vivo uptake, Submandibular gland ([2]; SAL): 0.36±0.12 SUV
Ex vivo uptake, Testes ([2]; SAL): 0.40±0.06 SUV
Ex vivo uptake, Thymus ([2]; SAL): 0.32±0.06 SUV
Ex vivo uptake, Urine ([2]; SAL): 11.0±9.5 SUV
Ex vivo uptake, Whole blood ([2]; SAL): 0.16±0.03 SUV
Ex vivo uptake, Brainstem [2, 4]: 0.16 ± 0.04 SUV
Ex vivo uptake, Cerebellum [2, 4]: 0.13 ± 0.02 SUV
Ex vivo uptake, Cortex [2, 4]: 0.16 ± 0.04 SUV
Ex vivo uptake, Hippocampus [2, 4]: 0.23 ± 0.08 SUV
Ex vivo uptake, Mean brain uptake [2, 4]: 0.16 ± 0.04 SUV
Ex vivo uptake, Olfactory bulbs [2, 4]: 0.15 ± 0.04 SUV
Ex vivo uptake, Parietal bone [2, 4]: 0.10 ± 0.01 SUV
Ex vivo uptake, Pituitary [2, 4]: 0.59 ± 0.20 SUV
Ex vivo uptake, Rest of brain [2, 4]: 0.18 ± 0.03 SUV
Ex vivo uptake, Striatum [2, 4]: 0.23 ± 0.08 SUV
Ex vivo uptake, Thalamus + hypothalamus [2, 4]: 0.19 ± 0.05 SUV
Ex vivo uptake, Brainstem ([2]; saline, after PET scan): 0.18 ± 0.02 (6) SUV
Ex vivo uptake, Cerebellum ([2]; saline, after PET scan): 0.13 ± 0.01 (8) SUV
Ex vivo uptake, Cortex ([2]; saline, after PET scan): 0.18 ± 0.01 (5) SUV
Ex vivo uptake, Hippocampus ([2]; saline, after PET scan): 0.22 ± 0.02 (2) SUV
Ex vivo uptake, Mean brain uptake ([2]; saline, after PET scan): 0.18 ± 0.01 SUV
Ex vivo uptake, Olfactory bulbs ([2]; saline, after PET scan): 0.17 ± 0.01 (7) SUV
Ex vivo uptake, Parietal bone ([2]; saline, after PET scan): 0.10 ± 0.01 SUV
Ex vivo uptake, Pituitary ([2]; saline, after PET scan): 0.76 ± 0.08 SUV
Ex vivo uptake, Rest of brain ([2]; saline, after PET scan): 0.20 ± 0.02 (3) SUV
Ex vivo uptake, Thalamus + hypothalamus ([2]; saline, after PET scan): 0.19 ± 0.003 (4) SUV
Ex vivo uptake, Striatum ([2]; saline, after PET scan (98 ± 8 min p.i.)): 0.28 ± 0.03 (1) SUV
intact tracer in radioactivity of brain tissue extract ([3]; 35 min post-injection): 92%
metabolism in plasma ([3]; living rats): quickly metabolized in the plasma
entry of radiometabolites into the brain ([3]; rat, in vivo): did not enter the brain
SMILES: Oc1ccc2c(c1)O[C@@H](CNCc1ccc(OCC[18F])cc1)CC2 [[^18F]FEt-AMC13]
Striatal SBR based on after-scan biodistribution measurements ([2]; 1 mg/kg raclopride): 0.74 ± 0.27
decrease of biodistribution-based striatal SBR ([2]; 1 mg/kg raclopride, p = 0.17): 31%
Striatal SBR based on after-scan biodistribution measurements ([2]; saline pre-treated): 1.07 ± 0.10
